# In patent US12227488B2, “Small molecule degraders of Helios and methods of use” (DANA-FARBER CANCER INSTITUTE, INC., priority 2018, dated 2025):
# Key:
# CRBN and Helios (IKZF2) = target: T1, CRBN and Helios (IKZF2) (Homo sapiens, UniProt Q96SW2+Q9UKS7); assay: TR-FRET dimerization assay (CRBN-IKZF2 ternary complex formation); assay type: binding; settings: n=1
# T1 construct: His (N); Strep (N)
# Method: A focused library of imide analogs was synthesized and assessed for their ability to induce dimerization between CRBN and Helios in a time-resolved fluorescence energy transfer (TR-FRET) assay (FIG. 1A).
# Prior to TR-FRET measurements being conducted, the reactions were incubated for 15 min at rt. […] The TR-FRET signal of each data point was extracted by calculating the 520/490 nm ratios. Data from single measurements (n=1), each calculated as an average of at least three technical replicates per well per experiment are presented in Table 1.
# BODIPY-labeled CRBN in complex with Damage Specific DNA Binding Protein 1 (DDB1) harboring an internal deletion of the flexible BPB propeller (DDB1AB-CRBN) and in vitro biotinylated IKZF2 were treated with increasing concentrations of the indicated compounds in the presence of tracer amounts of Terbium-Streptavidin (Tb-SA). Compound-induced recruitment of IKZF2 to CRBN was quantified following the 520/490 TR-FRET ratio using a PHERAstar® plate reader (BMG) utilizing two synchronized PMTs to reduce background.
# IKZF1 = target: T2, IKZF1 (Homo sapiens, UniProt Q13422); assay: Cellular degradation assay, eGFP-IKZF1Δ fusion with mCherry reporter in Flp-In 293 cells; assay type: cell-based; settings: for IKZF1 GFP/RFP Relative Abundance: 5 h incubation, n=1
# T2 construct: expressed in transfected cells; host or cells: Flp-In 293
# T2 sequence (Q13422 83-213 isoform Q13422-7 limits assumed): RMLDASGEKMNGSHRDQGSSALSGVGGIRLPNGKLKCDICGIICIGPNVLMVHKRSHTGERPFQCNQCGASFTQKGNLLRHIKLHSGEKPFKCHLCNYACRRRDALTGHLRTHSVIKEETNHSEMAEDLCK
# T2 sequence (Q96SW2 whole entry partner, the tested form may be a part): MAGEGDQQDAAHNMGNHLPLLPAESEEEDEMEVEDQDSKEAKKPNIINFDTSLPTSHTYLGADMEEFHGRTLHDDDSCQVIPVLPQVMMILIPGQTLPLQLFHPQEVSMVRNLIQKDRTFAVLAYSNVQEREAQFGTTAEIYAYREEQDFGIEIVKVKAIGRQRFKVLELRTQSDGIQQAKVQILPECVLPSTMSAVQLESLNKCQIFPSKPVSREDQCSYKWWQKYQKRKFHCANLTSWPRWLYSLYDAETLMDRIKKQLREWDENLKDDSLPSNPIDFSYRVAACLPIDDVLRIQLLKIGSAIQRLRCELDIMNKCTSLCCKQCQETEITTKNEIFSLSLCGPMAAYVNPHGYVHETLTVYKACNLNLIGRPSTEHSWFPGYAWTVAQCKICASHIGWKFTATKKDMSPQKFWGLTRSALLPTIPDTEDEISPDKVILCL
# T2 sequence (Q16531 2-1140 partner limits assumed): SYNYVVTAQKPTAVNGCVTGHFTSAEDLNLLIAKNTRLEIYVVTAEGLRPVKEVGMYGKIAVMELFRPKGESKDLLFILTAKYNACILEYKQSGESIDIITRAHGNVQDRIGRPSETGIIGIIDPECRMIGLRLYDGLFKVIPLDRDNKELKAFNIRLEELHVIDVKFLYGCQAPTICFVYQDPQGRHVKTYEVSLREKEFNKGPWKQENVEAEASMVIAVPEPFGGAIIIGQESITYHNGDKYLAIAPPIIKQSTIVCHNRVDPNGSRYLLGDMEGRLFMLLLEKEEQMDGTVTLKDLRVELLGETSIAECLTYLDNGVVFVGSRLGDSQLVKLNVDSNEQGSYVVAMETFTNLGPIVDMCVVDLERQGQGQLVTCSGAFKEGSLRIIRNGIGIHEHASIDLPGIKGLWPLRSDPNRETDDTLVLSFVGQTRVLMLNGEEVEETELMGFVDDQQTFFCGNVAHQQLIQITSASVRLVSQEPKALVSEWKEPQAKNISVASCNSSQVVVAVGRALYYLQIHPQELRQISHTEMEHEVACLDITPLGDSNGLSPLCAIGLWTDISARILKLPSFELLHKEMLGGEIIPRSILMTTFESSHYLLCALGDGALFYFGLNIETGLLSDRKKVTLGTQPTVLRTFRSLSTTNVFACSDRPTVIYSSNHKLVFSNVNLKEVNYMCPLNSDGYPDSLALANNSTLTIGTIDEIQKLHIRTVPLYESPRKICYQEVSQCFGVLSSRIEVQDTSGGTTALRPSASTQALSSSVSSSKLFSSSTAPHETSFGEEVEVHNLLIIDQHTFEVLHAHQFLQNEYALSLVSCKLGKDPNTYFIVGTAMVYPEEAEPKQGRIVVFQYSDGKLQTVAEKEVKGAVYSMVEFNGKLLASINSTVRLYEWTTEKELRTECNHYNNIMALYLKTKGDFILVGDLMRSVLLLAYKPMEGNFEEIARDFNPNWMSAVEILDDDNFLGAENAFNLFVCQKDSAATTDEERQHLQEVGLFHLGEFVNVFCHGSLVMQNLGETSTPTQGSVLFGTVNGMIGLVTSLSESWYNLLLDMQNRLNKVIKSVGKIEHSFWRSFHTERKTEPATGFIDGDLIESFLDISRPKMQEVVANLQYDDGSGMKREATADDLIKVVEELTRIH
# Method: (§1) IKZF1Δ, IKZF2Δ, GSPT1 and SALL4 ZnF1-2 were subcloned into mammalian pcDNA5/FRT Vector (Ampicillin and Hygromycin B resistant) modified to contain MCS-eGFP-P2A-mCherry. […] Following 2-3 passage cycle, FACS (FACSAria™ II, BD) was used to enrich for cells expressing eGFP and mCherry. Cells stably expressing the IKZF1Δ, IKZF2Δ, GSPT1 or SALL4 Znf1-2 GFP fusions with mCherry reporter were seeded at 30-50% confluency in 384-well plates with 50 μL FluoroBrite™ DMEM media (Thermo Fisher Scientific, A18967) containing 10% FBS per well a day before compound treatment. Compound titrations were dispensed using a D300e Digital Dispenser (HP), normalized to 0.5% DMSO, and incubated with cells for 5 hours.
# (§2) The resulting images were analyzed using CellProfiler™. A series of image analysis steps (‘image analysis pipeline’) was constructed. First, the red and green channels were aligned and cropped to target the middle of each well (to avoid analysis of heavily clumped cells at the edges), and a background illumination function was calculated for both red and green channels of each well individually and subtracted to correct for illumination variations across the 384-well plate from various sources of error. An additional step was then applied to the green channel to suppress the analysis of large auto fluorescent artifacts and enhance the analysis of cell specific fluorescence by way of selecting for objects under a given size, 30 A.U., and with a given shape, speckles. mCherry-positive cells were then identified in the red channel filtering for objects between 8-60 pixels in diameter and using intensity to distinguish between clumped objects. The green channel was then segmented into GFP positive and negative areas and objects were labeled as GFP positive if at least 40% of it overlapped with a GFP positive area. The fraction of GFP-positive cells/mCherry-positive cells in each well was then calculated, and the green and red images were rescaled for visualization.
# (§3) The degradation assay was performed as described above. […] Degradation was measured after 5 h of compound treatment and the concentrations that lead to half degradation at 5 h (DC50,5 h) were calculated using the nonlinear fit variable slope model (GraphPad Software).
# IKZF2 = assay: Cellular degradation assay, eGFP-IKZF2Δ fusion with mCherry reporter in Flp-In 293 cells; assay type: cell-based; settings: for IKZF2 GFP/RFP Relative Abundance: 5 h incubation, n=1
# Method: as §1, §2, §3
# [1] = compound concentration 6.6667E−05
# [2] = compound concentration 6.6667E−06
# [3] = compound concentration 6.6667E−07 (667 nM)
# [4] = compound concentration 2.00E−05
# [5] = compound concentration 2.00E−06
# [6] = compound concentration 2.00E−07
# [7] = half degradation at 5 h (DC50,5 h), triplicate, 11 point dose response
# T1 sequence (Q96SW2 whole entry): as the sequence (Q96SW2 whole entry partner, the tested form may be a part) above
# T1 sequence (Q9UKS7 whole entry): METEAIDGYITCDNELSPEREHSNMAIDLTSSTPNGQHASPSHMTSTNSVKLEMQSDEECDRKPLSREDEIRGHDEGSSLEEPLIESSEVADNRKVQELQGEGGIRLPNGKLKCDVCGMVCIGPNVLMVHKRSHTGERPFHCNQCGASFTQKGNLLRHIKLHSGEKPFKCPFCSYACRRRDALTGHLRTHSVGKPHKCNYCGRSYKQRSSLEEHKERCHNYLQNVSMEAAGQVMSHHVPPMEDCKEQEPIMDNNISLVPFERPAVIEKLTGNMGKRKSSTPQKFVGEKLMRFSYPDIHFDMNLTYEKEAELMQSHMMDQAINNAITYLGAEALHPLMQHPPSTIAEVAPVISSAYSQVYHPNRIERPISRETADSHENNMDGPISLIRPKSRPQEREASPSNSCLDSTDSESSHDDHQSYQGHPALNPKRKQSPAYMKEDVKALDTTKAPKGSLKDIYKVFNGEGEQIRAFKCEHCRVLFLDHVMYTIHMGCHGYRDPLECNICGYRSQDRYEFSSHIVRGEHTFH
Structure (SMILES),TR-FRET-IKZF2 (Normalized to CC-885) (CRBN and Helios (IKZF2); [1]),TR-FRET-IKZF2 (Normalized to CC-885) (CRBN and Helios (IKZF2); [2]),TR-FRET-IKZF2 (Normalized to CC-885) (CRBN and Helios (IKZF2); [3]),IKZF1 GFP/RFP Relative Abundance (IKZF1; [4]),IKZF1 GFP/RFP Relative Abundance (IKZF1; [5]),IKZF1 GFP/RFP Relative Abundance (IKZF1; [6]),IKZF2 GFP/RFP Relative Abundance (IKZF2; [4]),IKZF2 GFP/RFP Relative Abundance (IKZF2; [5]),IKZF2 GFP/RFP Relative Abundance (IKZF2; [6]),"potency of IKZF1 degradation, in words (IKZF1; Table 3 summary)",DC50 (IKZF1; [7]),DC50 (IKZF2; [7])
"Cc1ccc(NC(=O)NCc2cccc(OC3=CC(=O)N(C4CCC(=O)NC4=O)C3=O)c2)cc1Cl (stereo not drawn) [Compound 64, 1-(3-chloro-4-methylphenyl)-3-(3-((1-(2,6-dioxopiperidin-3-yl)-2,5-dioxo-2,5-dihydro-1H-pyrrol-3-yl)oxy)benzyl)urea]",0.030,0.025,0.021,1.154,1.077,1.122,1.087,1.038,1.061,–,–,–
"Cc1ccc(NC(=O)N[C@H](C)c2cccc(NC3=CC(=O)N(C4CCC(=O)NC4=O)C3=O)c2)cc1Cl (stereo partly drawn) [Compound 70, 1-(3-chloro-4-methylphenyl)-3-((1R)-1-(3-((1-(2,6-dioxopiperidin-3-yl)-2,5-dioxo-2,5-dihydro-1H-pyrrol-3-yl)amino)phenyl)ethyl)urea]",1.531,1.409,1.271,0.076,0.080,0.103,0.021,0.057,0.031,–,–,–
"Cc1ccc(NC(=O)NC(CC(=O)N(C)C)c2cccc(NC3=CC(=O)N(C4CCC(=O)NC4=O)C3=O)c2)cc1Cl (stereo not drawn) [Compound 76, 3-(3-(3-chloro-4-methylphenyl)ureido)-3-(3-((1-(2,6-dioxopiperidin-3-yl)-2,5-dioxo-2,5-dihydro-1H-pyrrol-3-yl)amino)phenyl)-N,N-dimethylpropanamide]",1.961,1.657,1.577,0.103,0.069,0.107,0.027,0.036,0.032,–,–,–
"Cc1ccc(NC(=O)CNc2cccc(NC3=CC(=O)N(C4CCC(=O)NC4=O)C3=O)c2)cc1Cl (stereo not drawn) [Compound 78, N-(3-chloro-4-methylphenyl)-2-((3-((1-(2,6-dioxopiperidin-3-yl)-2,5-dioxo-2,5-dihydro-1H-pyrrol-3-yl)amino)phenyl)amino)acetamide]",–,–,–,–,–,–,–,–,–,most potent against IKZF1,1.9 nM,2.2 nM
"O=C1CCC(N2C(=O)C=C(Nc3cccc(CNC(=O)NCc4ccccc4)c3)C2=O)C(=O)N1 (stereo not drawn) [Compound 81, 1-benzyl-3-(3-((1-(2,6-dioxopiperidin-3-yl)-2,5-dioxo-2,5-dihydro-1H-pyrrol-3-yl)amino)benzyl)urea]",0.703,0.585,0.519,0.063,0.056,0.094,0.587,0.660,0.737,–,–,–
"Cc1cc(CNC(=O)NCc2cccc(NC3=CC(=O)N(C4CCC(=O)NC4=O)C3=O)c2)ccc1Cl (stereo not drawn) [Compound 82, 1-(4-chloro-3-methylbenzyl)-3-(3-((1-(2,6-dioxopiperidin-3-yl)-2,5-dioxo-2,5-dihydro-1H-pyrrol-3-yl)amino)benzyl)urea]",0.999,0.975,0.838,0.085,0.085,0.069,0.158,0.220,0.293,–,–,–
"Cc1ccc(NC(=O)NCc2cc(NC3=CC(=O)N(C4CCC(=O)NC4=O)C3=O)ccc2OC(=O)N(C)C)cc1Cl (stereo not drawn) [Compound 95, 2-((3-(3-chloro-4-methylphenyl)ureido)methyl)-4-((1-(2,6-dioxopiperidin-3-yl)-2,5-dioxo-2,5-dihydro-1H-pyrrol-3-yl)amino)phenyl Dimethylcarbamate]",0.124,0.109,0.094,0.944,0.904,0.960,1.070,1.058,1.029,–,–,–
"O=C1CCC(N2C(=O)C=C(Nc3cccc(CCC(=O)Nc4ccc(C(F)(F)F)c(Cl)c4)c3)C2=O)C(=O)N1 (stereo not drawn) [Compound 129, N-(3-chloro-4-(trifluoromethyl)phenyl)-3-(3-((1-(2,6-dioxopiperidin-3-yl)-2,5-dioxo-2,5-dihydro-1H-pyrrol-3-yl)amino)phenyl)propanamide]",1.626,1.551,1.583,–,–,–,0.063,0.013,0.027,–,–,–
Cc1ccc(NC(=O)CC(C)c2cccc(NC3=CC(=O)N(C4CCC(=O)NC4=O)C3=O)c2)cc1Cl (stereo not drawn) [Compound 137],1.665,1.677,1.665,–,–,–,0.023,0.009,0.011,–,–,–
"CC(CC(=O)Nc1cccc(C(F)(F)F)c1)c1cccc(NC2=CC(=O)N(C3CCC(=O)NC3=O)C2=O)c1 (stereo not drawn) [Compound 140, 3-(3-((1-(2,6-dioxopiperidin-3-yl)-2,5-dioxo-2,5-dihydro-1H-pyrrol-3-yl)amino)phenyl)-N-(3-(trifluoromethyl)phenyl)butanamide]",2.291,1.72,1.626,–,–,–,0.174,0.017,0.013,–,–,–
